Measurements from patent publication US20210356467A1, “SYSTEMS AND METHOD FOR SCREENING SMALL MOLECULES OF INTEREST” (TECHNOLOGY INNOVATION MOMENTUM FUND (ISRAEL) LIMITED …, priority 2018, published 2021).

Key:
[1] = biological target: T1, IKZF1 ubiquitylation by CRBN (Homo sapiens, UniProt Q13422+Q96SW2); assay: split-CAT selective growth assay, IKZF1 as ubiquitylation target of CRBN; type: cell-based
T1 construct: expressed in transfected cells; host or cells: E. coli
Experimental: (§1) Activity assays with split-CAT system: Vectors containing the split-CAT ubiquitylation system were co-transformed into E. coli and grew in the presence of the relevant antibiotics (e.g. kanamycin and streptomycin). Overnight culture was harvested and the media was replaced with fresh LB containing 8 μg/ml chloramphenicol. The culture was diluted to O.D.600=0.2 and dispended to a 96 or 384 well plate supplemented with potential small molecule drugs or DMSO only. The plate was placed in a shaker/incubator/reader and OD600 was continuously monitored during the growth.
(§2) This procedure was used to read the ubiquitylation dependent growth of IKZF1, IKZF3, CK1a and GSPT1.
(§3) In a first experiment, IKZF1 (Q13422) and GSPT1 (P15170) were analyzed as potential ubiquitylation targets. These targets were coexpressed with C-CAT-Ub and E1 and the Cereblon-E2 (Ubc4) fusion. […] These assays were performed in 96 and 384 well plates.

[2] = biological target: T2, CK1α ubiquitylation by CRBN (Homo sapiens, UniProt P48729+Q96SW2); assay: split-CAT selective growth assay, CK1a as ubiquitylation target of CRBN; type: cell-based; settings: split-CAT system, Cereblon-E2 (Ubc4) fusion, chloramphenicol, 96 and 384 well plates
T2 construct: expressed in transfected cells; host or cells: E. coli
T2 sequence (P48729 whole entry, the tested form may be a part): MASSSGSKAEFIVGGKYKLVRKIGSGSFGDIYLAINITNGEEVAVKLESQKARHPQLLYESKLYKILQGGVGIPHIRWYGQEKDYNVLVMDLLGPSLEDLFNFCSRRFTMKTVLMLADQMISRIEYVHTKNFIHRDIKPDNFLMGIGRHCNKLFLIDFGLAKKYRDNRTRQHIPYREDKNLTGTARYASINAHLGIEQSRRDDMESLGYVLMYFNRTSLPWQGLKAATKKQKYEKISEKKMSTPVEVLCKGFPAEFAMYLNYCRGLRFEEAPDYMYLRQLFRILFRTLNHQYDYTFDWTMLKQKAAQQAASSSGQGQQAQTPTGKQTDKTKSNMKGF
T2 sequence (Q96SW2 whole entry, the tested form may be a part): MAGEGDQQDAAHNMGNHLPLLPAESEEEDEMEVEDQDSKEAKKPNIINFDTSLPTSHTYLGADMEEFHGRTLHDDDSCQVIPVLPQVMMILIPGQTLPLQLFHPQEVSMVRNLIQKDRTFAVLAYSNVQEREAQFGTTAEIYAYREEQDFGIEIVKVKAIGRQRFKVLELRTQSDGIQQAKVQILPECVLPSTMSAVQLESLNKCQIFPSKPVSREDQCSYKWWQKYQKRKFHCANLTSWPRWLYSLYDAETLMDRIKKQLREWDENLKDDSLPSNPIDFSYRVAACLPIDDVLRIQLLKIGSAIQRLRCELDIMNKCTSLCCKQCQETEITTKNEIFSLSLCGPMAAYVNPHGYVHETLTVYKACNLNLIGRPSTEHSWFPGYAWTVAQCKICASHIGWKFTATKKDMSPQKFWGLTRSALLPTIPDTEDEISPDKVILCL
T2 sequence (P15731 whole entry partner, the tested form may be a part): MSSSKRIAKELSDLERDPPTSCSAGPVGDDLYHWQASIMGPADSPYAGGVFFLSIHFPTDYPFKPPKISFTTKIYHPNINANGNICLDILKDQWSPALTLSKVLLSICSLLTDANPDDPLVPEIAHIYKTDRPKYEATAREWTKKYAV
Experimental: as §1, §2
It was expressed in-frame upstream to the N-CAT fragment. […] These assays were performed in 96 and 384 well plates.

[3] = biological target: T3, GSPT1 ubiquitylation by CRBN (Homo sapiens, UniProt P15170+Q96SW2); assay: split-CAT selective growth assay, GSPT1 as ubiquitylation target of CRBN; type: cell-based; set-up: expressed in transfected cells; host or cells: E. coli; settings: for growth of E. coli that express GSPT1 (ubiquitylation dependent growth, OD600): split-CAT system, Cereblon-E2 (Ubc4) fusion, LB with chloramphenicol, 96 and 384 well plates
Experimental: as §1, §2, §3
Target sequence in this assay (P15170 whole entry, the tested form may be a part): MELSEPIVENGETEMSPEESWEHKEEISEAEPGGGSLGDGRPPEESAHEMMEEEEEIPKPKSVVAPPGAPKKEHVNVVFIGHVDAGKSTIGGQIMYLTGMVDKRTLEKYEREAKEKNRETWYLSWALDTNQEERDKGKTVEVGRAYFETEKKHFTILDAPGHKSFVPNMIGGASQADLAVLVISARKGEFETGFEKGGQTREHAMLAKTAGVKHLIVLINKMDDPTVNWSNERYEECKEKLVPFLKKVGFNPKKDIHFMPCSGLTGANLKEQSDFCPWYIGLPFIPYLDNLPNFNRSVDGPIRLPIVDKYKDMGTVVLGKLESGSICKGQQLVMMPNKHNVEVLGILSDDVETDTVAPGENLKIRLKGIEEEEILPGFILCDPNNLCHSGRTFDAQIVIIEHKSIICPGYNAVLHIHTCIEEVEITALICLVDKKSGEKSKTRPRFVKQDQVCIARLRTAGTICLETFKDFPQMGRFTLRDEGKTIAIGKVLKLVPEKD
Target sequence in this assay (Q96SW2 whole entry, the tested form may be a part): as the sequence (Q96SW2 whole entry, the tested form may be a part) above
Target sequence in this assay (P15731 whole entry partner, the tested form may be a part): as the sequence (P15731 whole entry partner, the tested form may be a part) above
In a third experiment, GSPT1 was analyzed as a potential ubiquitylation target. It was expressed in-frame upstream to the N-CAT fragment. The target was co-expressed with C-CAT-Ub, wheat E1 and Cereblon-E2 (Ubc4) fusion. […] These assays were performed in 96 and 384 well plates.

[4] = biological target: T3, GSPT1 ubiquitylation by CRBN; settings: Matyskiela et al. Nature 535, 252-257 (2016); cited from earlier work
Target sequence in this assay (P15170 whole entry, the tested form may be a part): as the sequence (P15170 whole entry, the tested form may be a part) above
Target sequence in this assay (Q96SW2 whole entry, the tested form may be a part): as the sequence (Q96SW2 whole entry, the tested form may be a part) above
Target sequence in this assay (Q16531 whole entry partner, the tested form may be a part): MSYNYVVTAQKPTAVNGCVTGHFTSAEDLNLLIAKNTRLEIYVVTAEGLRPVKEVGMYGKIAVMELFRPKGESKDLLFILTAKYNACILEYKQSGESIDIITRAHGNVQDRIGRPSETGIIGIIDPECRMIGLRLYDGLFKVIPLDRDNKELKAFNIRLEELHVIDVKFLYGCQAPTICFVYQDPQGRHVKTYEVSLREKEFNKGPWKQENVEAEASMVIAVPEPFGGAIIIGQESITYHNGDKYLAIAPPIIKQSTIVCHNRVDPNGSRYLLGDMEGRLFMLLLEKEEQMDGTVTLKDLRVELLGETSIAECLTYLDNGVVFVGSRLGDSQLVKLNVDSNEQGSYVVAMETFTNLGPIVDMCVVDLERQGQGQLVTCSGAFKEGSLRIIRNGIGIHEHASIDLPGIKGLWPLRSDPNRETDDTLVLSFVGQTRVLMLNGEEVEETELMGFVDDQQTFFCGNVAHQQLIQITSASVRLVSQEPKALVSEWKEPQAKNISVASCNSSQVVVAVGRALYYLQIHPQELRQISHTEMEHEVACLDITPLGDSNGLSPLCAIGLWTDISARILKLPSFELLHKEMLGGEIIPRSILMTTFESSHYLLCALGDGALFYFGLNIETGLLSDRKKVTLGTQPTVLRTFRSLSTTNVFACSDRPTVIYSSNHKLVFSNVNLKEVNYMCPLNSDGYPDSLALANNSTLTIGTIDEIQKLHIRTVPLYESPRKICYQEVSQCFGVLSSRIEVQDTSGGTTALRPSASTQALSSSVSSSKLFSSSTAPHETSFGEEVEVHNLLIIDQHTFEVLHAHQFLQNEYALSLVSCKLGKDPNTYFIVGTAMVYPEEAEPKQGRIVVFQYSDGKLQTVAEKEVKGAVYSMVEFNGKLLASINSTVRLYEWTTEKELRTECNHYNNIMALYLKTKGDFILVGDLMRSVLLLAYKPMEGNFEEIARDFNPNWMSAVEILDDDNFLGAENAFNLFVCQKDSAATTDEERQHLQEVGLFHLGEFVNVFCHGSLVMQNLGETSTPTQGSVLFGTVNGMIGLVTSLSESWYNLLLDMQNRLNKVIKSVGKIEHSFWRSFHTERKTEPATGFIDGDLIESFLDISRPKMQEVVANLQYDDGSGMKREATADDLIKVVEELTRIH

T1 sequence (Q13422 whole entry): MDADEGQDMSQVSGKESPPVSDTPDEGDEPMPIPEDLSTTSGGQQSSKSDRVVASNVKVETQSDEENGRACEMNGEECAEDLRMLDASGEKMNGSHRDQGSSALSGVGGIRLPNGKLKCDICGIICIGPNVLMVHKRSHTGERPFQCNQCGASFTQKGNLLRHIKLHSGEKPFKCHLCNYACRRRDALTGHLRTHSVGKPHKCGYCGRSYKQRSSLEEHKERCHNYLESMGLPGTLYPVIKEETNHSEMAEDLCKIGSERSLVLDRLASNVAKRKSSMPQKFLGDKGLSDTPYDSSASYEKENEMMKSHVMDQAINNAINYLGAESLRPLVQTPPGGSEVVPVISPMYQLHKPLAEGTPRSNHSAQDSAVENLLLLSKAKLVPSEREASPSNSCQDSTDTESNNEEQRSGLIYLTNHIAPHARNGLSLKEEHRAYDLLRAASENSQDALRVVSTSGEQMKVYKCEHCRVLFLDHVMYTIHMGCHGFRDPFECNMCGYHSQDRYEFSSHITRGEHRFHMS
T1 sequence (Q96SW2 whole entry): as the sequence (Q96SW2 whole entry, the tested form may be a part) above
T1 sequence (P15731 whole entry partner): as the sequence (P15731 whole entry partner, the tested form may be a part) above

Structure (SMILES)	shape of dose response curve (growth), IKZF1 target ([1]; increased concentration of drug, split-CAT selection system)	growth of E. coli that express IKZF1 (ubiquitylation dependent growth, OD600) ([1]; split-CAT system, Cereblon-E2 (Ubc4) fusion, LB with chloramphenicol, 96 and 384 well plates)	growth of E. coli that express CK1a (ubiquitylation dependent growth, OD600) [2]	growth of E. coli that express GSPT1 (ubiquitylation dependent growth, OD600) ([3]; listed as TLD)	CRBN dependent ubiquitylation of GSPT1 in the presence of the drug [4]	shape of dose response curve (growth), GSPT1 target ([3]; increased concentration of drug, selective conditions with chloramphenicol)	growth of E. coli that express GSPT1 (ubiquitylation dependent growth, OD600) [3]
O=C1CCC(N2C(=O)c3ccccc3C2=O)C(=O)N1 (stereo not shown) [Thalidomide]	optimum characteristic response	significantly promoted the growth	significantly promoted the growth	not promoted			
Cc1ccc(NC(=O)NCc2ccc3c(c2)CN(C2CCC(=O)NC2=O)C3=O)cc1Cl (stereo not shown) [CC-885]					undergo CRBN dependent ubiquitylation	classical bell-shaped activity (growth) curve	significantly promoted the growth
